From patent US20210261507A1, “Crystalline Form of Fluopyram” (Bayer Aktiengesellschaft, priority 2018, published 2021)
Several values for one entry are separate records, joined by “and”; a condition that tells them apart may be missing. Equal values may be shown once.

Tests used:
Type in all cases: physicochemical
[1] = Aspect ratio of crystals measured from microscopic images of suspension concentrate formulations; details: for Aspect ratio, mean: mean of 10 crystals, tables 5.1 to 5.4; for Crystal shape (FIGS. 3a-3d): microscopic images
Method: In an example the aspect ratio for crystals of fluopyram and other different active ingredients was measured from microscopic images taken from suspension concentrate formulations after crystal growth had occurred, diluted to approximately 1% in water. For the purpose of this invention the length is defined as the longest dimension and the width as the shortest dimension of a 2-dimensional image obtained in a transmission optical microscope. The aspect ratio was determine by the dividing the length by the width.

[2] = Ageing of fluopyram suspension concentrate, crystal habit; details: 500 g/L suspension concentrate, 1 month at 40 to 45° C.
Method: In an example 500 g/L of fluopyram crystalline active ingredient was added to a mixture of 65 g/L wetters and dispersants, 80 g/L propylene glycol, 2 g/L silicone antifoam in 432 g/L with high shear mixing (Ultra-Turrax®) to reduce the particle size D(v,0.9) to approximately 50 microns, then passed through a bead mill (Eiger® 250 Mini Motormill) to achieve a particles size D(v,0.9) typically 1 to 15 microns. Then a gel composed of 2.4 g/L xanthan and 1 g/L biocide in 117 g/L water was added with low shear mixing (stirrer).

[3] = EC formulation diluted in water and evaporated on the leaf surface, crystal habit; details: dilution at 1% in water
Method: In an example an EC formulation was prepared by dissolving 1 to 500 g/L of fluopyram in a mixture comprising a certain amount of emulsifiers and a certain amount of solvent.

[4] = Table 6, crystals present in suspension concentrate formulations, from tables 5.1 to 5.4

Row | Compound | Aspect ratio [1, 4] | Aspect ratio, mean [1] | Crystal shape (FIGS. 3a-3d) [1] | Crystal appearance after ageing [2] | Crystals produced after dilution and evaporation [3] | Aspect ratio ([1]; single crystals, length divided by width)
1 | O=C(NCCc1ncc(C(F)(F)F)cc1Cl)c1ccccc1C(F)(F)F [fluopyram, N-{2-[3-chloro-5-(trifluoromethyl)-2-pyridyl]ethyl}-α,α,α-trifluoro-o-tolu amide] | 12.02 | 12.02 | needle-like habit | needle-like appearance | needle shaped crystals | –
2 | Cc1cc(C)nc(Nc2ccccc2)n1 [pyrimethanil] | 1.44 | 1.44 | cubic shaped forms | – | – | –
3 | CC(C)(C)C(O)(CCc1ccc(Cl)cc1)Cn1cncn1 (stereo not drawn) [tebuconazole] | 1.15 | 1.15 | cubic shaped forms | – | – | 1.00 and 1.20 and 1.30 and 1.02 and 1.22 and 0.83 and 1.07 and 1.44
4 | CON=C(C(=O)OC)c1ccccc1CON=C(C)c1cccc(C(F)(F)F)c1 [trifloxystrobin] | 1.25 | 1.25 | cubic shaped forms | – | – | –
